Measurements: ChEMBL document CHEMBL1201861, “Genomics of Drug Sensitity in Cancer screening data, Wellcome Trust Sanger Institute”

System: Lu-65;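 also: growth inhibition of Lu-65 cancer cells, read out by a cell viability assay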
Experiment: cells
Assay type: functional, cell-based, Homo sapiens
Details: Homo sapiens, Lu-65
Description: SANGER: Inhibition of human LU-65 cell growth in a cell viability assay.

SMILES | IC50
COc1cc(N2CCN(C)CC2)ccc1Nc1ncc2c(n1)N(C)c1ccccc1C(=O)N2C | > 8 µM

System: SBC-1;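 also: cell viability assay measuring growth inhibition of the SBC-1 cell line, IC50 being the concentration that halves growth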
Experiment: cells
Assay type: functional, cell-based, Homo sapiens
Details: Homo sapiens, SBC-1
Description: SANGER: Inhibition of human SBC-1 cell growth in a cell viability assay.

SMILES | IC50
COc1cc(N2CCN(C)CC2)ccc1Nc1ncc2c(n1)N(C)c1ccccc1C(=O)N2C | > 8 µM

System: KY821;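 also: growth inhibition of human KY821 cells, read out by a cell viability assay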
Experiment: cells
Assay type: functional, cell-based, Homo sapiens
Details: Homo sapiens, KY821
Description: SANGER: Inhibition of human KY821 cell growth in a cell viability assay.

SMILES | IC50
COc1cc(N2CCN(C)CC2)ccc1Nc1ncc2c(n1)N(C)c1ccccc1C(=O)N2C | > 8 µM

System: KU812 cell line;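 also: growth inhibition of KU812 cells, read out with a cell viability assay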
Experiment: cells
Assay type: functional, cell-based, Homo sapiens
Details: Homo sapiens, KU812
Description: SANGER: Inhibition of human KU812 cell growth in a cell viability assay.

SMILES | IC50
COc1cc(N2CCN(C)CC2)ccc1Nc1ncc2c(n1)N(C)c1ccccc1C(=O)N2C | 7.43 µM

System: HOP-62
Experiment: cells
Assay type: functional, cell-based, Homo sapiens
Details: Homo sapiens, HOP-62
Description: SANGER: Inhibition of human HOP-62 cell growth in a cell viability assay.

SMILES | IC50
COc1cc(N2CCN(C)CC2)ccc1Nc1ncc2c(n1)N(C)c1ccccc1C(=O)N2C | 6.6 µM

System: OCI-AML2;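 also: growth inhibition of OCI-AML2 cells, read out with a cell viability assay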
Experiment: cells
Assay type: functional, cell-based, Homo sapiens
Details: Homo sapiens, OCI-AML2
Description: SANGER: Inhibition of human OCI-AML2 cell growth in a cell viability assay.

SMILES | IC50
COc1cc(N2CCN(C)CC2)ccc1Nc1ncc2c(n1)N(C)c1ccccc1C(=O)N2C | 3.6 µM

System: U-698-M
Experiment: cells
Assay type: functional, cell-based, Homo sapiens
Details: Homo sapiens, U-698-M
Description: SANGER: Inhibition of human U-698-M cell growth in a cell viability assay.

SMILES | IC50
COc1cc(N2CCN(C)CC2)ccc1Nc1ncc2c(n1)N(C)c1ccccc1C(=O)N2C | > 8 µM

System: TE-441-T
Experiment: cells
Assay type: functional, cell-based, Homo sapiens
Details: Homo sapiens, TE-441-T
Description: SANGER: Inhibition of human TE-441-T cell growth in a cell viability assay.

SMILES | IC50
COc1cc(N2CCN(C)CC2)ccc1Nc1ncc2c(n1)N(C)c1ccccc1C(=O)N2C | > 8 µM

System: GI-ME-N;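 also: growth inhibition of human GI-ME-N cells, read out with a cell viability assay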
Experiment: cells
Assay type: functional, cell-based, Homo sapiens
Details: Homo sapiens, GI-ME-N
Description: SANGER: Inhibition of human GI-ME-N cell growth in a cell viability assay.

SMILES | IC50
COc1cc(N2CCN(C)CC2)ccc1Nc1ncc2c(n1)N(C)c1ccccc1C(=O)N2C | 0.889 µM

System: NCI-H1581;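 also: cell growth inhibition read out by a viability assay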
Experiment: cells
Assay type: functional, cell-based, Homo sapiens
Details: Homo sapiens, NCI-H1581
Description: SANGER: Inhibition of human NCI-H1581 cell growth in a cell viability assay.

SMILES | IC50
COc1cc(N2CCN(C)CC2)ccc1Nc1ncc2c(n1)N(C)c1ccccc1C(=O)N2C | > 8 µM

System: CTB-1
Experiment: cells
Assay type: functional, cell-based, Homo sapiens
Details: Homo sapiens, CTB-1
Description: SANGER: Inhibition of human CTB-1 cell growth in a cell viability assay.

SMILES | IC50
COc1cc(N2CCN(C)CC2)ccc1Nc1ncc2c(n1)N(C)c1ccccc1C(=O)N2C | 7.52 µM

System: NB13;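 also: cell viability readout measuring growth inhibition of human NB13 cells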
Experiment: cells
Assay type: functional, cell-based, Homo sapiens
Details: Homo sapiens, NB13
Description: SANGER: Inhibition of human NB13 cell growth in a cell viability assay.

SMILES | IC50
COc1cc(N2CCN(C)CC2)ccc1Nc1ncc2c(n1)N(C)c1ccccc1C(=O)N2C | > 8 µM

System: MZ2-MEL;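 also: growth inhibition of MZ2-MEL cells read out with a cell viability assay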
Experiment: cells
Assay type: functional, cell-based, Homo sapiens
Details: Homo sapiens, MZ2-MEL
Description: SANGER: Inhibition of human MZ2-MEL cell growth in a cell viability assay.

SMILES | IC50
COc1cc(N2CCN(C)CC2)ccc1Nc1ncc2c(n1)N(C)c1ccccc1C(=O)N2C | > 8 µM

System: D-336MG
Experiment: cells
Assay type: functional, cell-based, Homo sapiens
Details: Homo sapiens, D-336MG
Description: SANGER: Inhibition of human D-336MG cell growth in a cell viability assay.

SMILES | IC50
COc1cc(N2CCN(C)CC2)ccc1Nc1ncc2c(n1)N(C)c1ccccc1C(=O)N2C | 0.769 µM

System: RPMI 8402
Experiment: SANGER: Inhibition of human RPMI-8402 cell growth in a cell viability assay.
Assay type: functional, cell-based
Details: Homo sapiens, RPMI 8402; read-out: IC50

SMILES | IC50
COc1cc(N2CCN(C)CC2)ccc1Nc1ncc2c(n1)N(C)c1ccccc1C(=O)N2C | 4.5 µM

System: BC-3;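 also: cell viability assay measuring growth inhibition of human BC-3 cells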
Experiment: cells
Assay type: functional, cell-based, Homo sapiens
Details: Homo sapiens, BC-3
Description: SANGER: Inhibition of human BC-3 cell growth in a cell viability assay.

SMILES | IC50
COc1cc(N2CCN(C)CC2)ccc1Nc1ncc2c(n1)N(C)c1ccccc1C(=O)N2C | > 8 µM

System: D-392MG
Experiment: cells
Assay type: functional, cell-based, Homo sapiens
Details: Homo sapiens, D-392MG

SMILES | IC50
COc1cc(N2CCN(C)CC2)ccc1Nc1ncc2c(n1)N(C)c1ccccc1C(=O)N2C | > 8 µM

System: KARPAS-299
Experiment: cells
Assay type: functional, cell-based, Homo sapiens
Details: Homo sapiens, KARPAS-299
Description: SANGER: Inhibition of human KARPAS-299 cell growth in a cell viability assay.

SMILES | IC50
COc1cc(N2CCN(C)CC2)ccc1Nc1ncc2c(n1)N(C)c1ccccc1C(=O)N2C | > 8 µM

System: NCI-H716;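 also: growth inhibition of human NCI-H716 cells, measured by a cell viability assay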
Experiment: cells
Assay type: functional, cell-based, Homo sapiens
Details: Homo sapiens, NCI-H716
Description: SANGER: Inhibition of human NCI-H716 cell growth in a cell viability assay.

SMILES | IC50
COc1cc(N2CCN(C)CC2)ccc1Nc1ncc2c(n1)N(C)c1ccccc1C(=O)N2C | > 8 µM

System: MC-CAR;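 also: growth inhibition of the human MC-CAR cell line, read out by a cell viability assay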
Experiment: cells
Assay type: functional, cell-based, Homo sapiens
Details: Homo sapiens, MC-CAR
Description: SANGER: Inhibition of human MC-CAR cell growth in a cell viability assay.

SMILES | IC50
COc1cc(N2CCN(C)CC2)ccc1Nc1ncc2c(n1)N(C)c1ccccc1C(=O)N2C | > 8 µM

System: NCI-H1304;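 also: growth inhibition of the cancer cell line, measured in a cell viability assay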
Experiment: cells
Assay type: functional, cell-based, Homo sapiens
Details: Homo sapiens, NCI-H1304
Description: SANGER: Inhibition of human NCI-H1304 cell growth in a cell viability assay.

SMILES | IC50
COc1cc(N2CCN(C)CC2)ccc1Nc1ncc2c(n1)N(C)c1ccccc1C(=O)N2C | > 8 µM

System: TE-1;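 also: growth inhibition of the human TE-1 cell line, read out with a cell viability assay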
Experiment: cells
Assay type: functional, cell-based, Homo sapiens
Details: Homo sapiens, TE-1
Description: SANGER: Inhibition of human TE-1 cell growth in a cell viability assay.

SMILES | IC50
COc1cc(N2CCN(C)CC2)ccc1Nc1ncc2c(n1)N(C)c1ccccc1C(=O)N2C | > 8 µM

System: GAK;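 also: cell growth inhibition read out by a cell viability assay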
Experiment: cells
Assay type: functional, cell-based, Homo sapiens
Details: Homo sapiens, GAK
Description: SANGER: Inhibition of human GAK cell growth in a cell viability assay.

SMILES | IC50
COc1cc(N2CCN(C)CC2)ccc1Nc1ncc2c(n1)N(C)c1ccccc1C(=O)N2C | > 8 µM

System: ST486
Experiment: SANGER: Inhibition of human ST486 cell growth in a cell viability assay.
Assay type: functional, cell-based
Details: Homo sapiens, ST486

SMILES | IC50
COc1cc(N2CCN(C)CC2)ccc1Nc1ncc2c(n1)N(C)c1ccccc1C(=O)N2C | 3.49 µM

System: LOX IMVI
Experiment: cells
Assay type: functional, cell-based, Homo sapiens
Details: Homo sapiens, LOX IMVI
Description: SANGER: Inhibition of human LOXIMVI cell growth in a cell viability assay.

SMILES | IC50
COc1cc(N2CCN(C)CC2)ccc1Nc1ncc2c(n1)N(C)c1ccccc1C(=O)N2C | > 8 µM
